# According to patent US7223759B2, “Antibacterial 3,5-diaminopiperidine-substituted aromatic and heteroaromatic compounds” (Anadys Pharmaceuticals, Inc., priority 2003, dated 2007):
# System: Escherichia coli (ATCC25922) or Staphylococcus aureus (ATCC25923)
# Assay: Antibacterial MIC, microdilution method in Mueller-Hinton medium
# Assay type: cell-based
# Conditions: Escherichia coli, 18 h, MIC in E. coli or S. aureus; two-fold serial dilutions 64 to 0.5 μg/ml in duplicate; 18 hours of incubation at 35° C.; read-out: Potency (MIC)
# Method in brief: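 Two-fold serial dilutions from 64 to 0.5 μg/ml, in duplicate, by broth microdilution in Mueller-Hinton medium (NCCLS M7-A5). MIC taken as the lowest concentration preventing visible growth after 18 h at 35° C.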
row,MIC [µg/mL],Compound
1,> 64,"COC(=O)c1c(N2C[C@H](N)C[C@H](N)C2)nc2ccccc2c1N1C[C@H](N)C[C@H](N)C1.Cl [2,4-Bis-((3R,5S)-3,5-diamino-piperidin-1-yl)-quinoline-3-carboxylic acidmethylester]"
2,> 64,"Cl.NC(=O)c1ccc(Nc2nc(N3C[C@H](N)C[C@H](N)C3)nc(N3C[C@H](N)C[C@H](N)C3)n2)cc1 [N-(4-carbamoyl-phenyl)-4,6-Bis-((3R,5S)-3,5-diamino-piperidin-1-yl)-[1,3,5]triazine-2-amine]"
3,> 64,"C=CCOC1OC(CO)C(O)C(O)C1Nc1nc(N2C[C@H](N)C[C@H](N)C2)nc(N2C[C@H](N)C[C@H](N)C2)n1.Cl (stereo partly drawn) [N-(2-allyloxy-4,5-dihydroxy-6-hydroxymethyl-tetrahydro-pyran-3-yl)-4,6-Bis-((3R,5S)-3,5-diamino-piperidin-1-yl)-[1,3,5]triazine-2-amine]"
4,> 64,"CC(=O)c1ccc(Nc2nc(N3C[C@H](N)C[C@H](N)C3)nc(N3C[C@@H](N)C[C@@H](O)C3)n2)cc1 [1-{4-[4-((3S,5R)-3-Amino-5-hydroxy-piperidin-1-yl)-6-((3R,5S)-3,5-diamino-piperidin-1-yl)-[1,3,5]triazin-2-ylamino]-phenyl}-ethanone]"
5,< 64,"N[C@@H]1C[C@H](N)CN(c2nc(Nc3ccc(Nc4ccccc4)cc3)nc(N3C[C@H](N)C[C@H](N)C3)n2)C1 [N-(4-phenylamino-phenyl)-4,6-Bis((3R,5S)-3,5-diamino-piperidin-1-yl)-[1,3,5]triazine-2-amine]"
6,< 64,"N[C@@H]1C[C@H](N)CN(c2nc(NCCN3CCNC3=O)nc(Nc3ccc(NC(=O)c4ccc(Cl)cc4)c(O)c3)n2)C1 [4-Chloro-N-{4-[4-((3S,5R)-3,5-diamino-piperidin-1-yl)-6-[2-(2-oxo-imidazolidin-1-yl)-ethylamino]-[1,3,5]triazin-2-ylamino}-2-hydroxy-phenyl)-benzamide]"
7,> 64,"CC(C)C(=O)Nc1ccc(Nc2nc(N3C[C@H](N)C[C@H](N)C3)nc(N3C[C@H](N)C[C@H](N)C3)n2)cc1O [N-(3-hydroxy-4-isobutyrylamino-phenyl)-4,6-Bis-((3R,5S)-3,5-diamino-piperidin-1-yl)-[1,3,5]triazine-2-amine]"
8,> 64,"Cl.NC(=O)CNc1nc(N2C[C@H](N)C[C@H](N)C2)nc(N2C[C@H](N)C[C@H](N)C2)n1 [N-carbamoylmethyl-4,6-Bis-((3R,5S)-3,5-diamino-piperidin-1-yl)-[1,3,5]triazine-2-amine]"

# Same assay, conditions: Escherichia coli, 18 h, read-out: Potency (MIC)
row,Compound,MIC [µg/mL]
1,"N[C@@H]1C[C@H](N)CN(c2nc(Nc3ccc(NC(=O)c4cc(OC(F)(F)F)ccc4O)cc3)nc(N3C[C@H](N)C[C@H](N)C3)n2)C1 [N-[4-(2-hydroxy-5-trifluoromethoxy-benzoylamino)-phenyl]-4,6-Bis-((3R,5S)-3,5-diamino-piperidin-1-yl)-[1,3,5]triazine-2-amine]",< 16
2,"N[C@@H]1C[C@H](N)CN(c2nc(Nc3ccc(C(=O)CC(=O)Nc4cccc(C(F)(F)F)c4)cc3)nc(N3C[C@H](N)C[C@H](N)C3)n2)C1 [N-{4-[2-(3-trifluoromethyl-phenylcarbamoyl)-acetyl]-phenyl}-4,6-Bis-((3R,5S)-3,5-diamino-piperidin-1-yl)-[1,3,5]triazine-2-amine]",< 16
3,"N[C@@H]1C[C@H](N)CN(c2nc(Nc3ccc(C(=O)CC(=O)Nc4cccc(OC(F)(F)F)c4)cc3)nc(N3C[C@H](N)C[C@H](N)C3)n2)C1 [N-{4-[2-(3-trifluoromethoxy-phenylcarbamoyl)-acetyl]-phenyl}-4,6-Bis-((3R,5S)-3,5-diamino-piperidin-1-yl)-[1,3,5]triazine-2-amine]",< 16
4,"COc1ccc(C(=O)Nc2ccc(Nc3nc(N4C[C@H](N)C[C@H](N)C4)nc(N4C[C@H](N)C[C@H](N)C4)n3)cc2O)cc1 [N-[3-hydroxy-4-(4-methoxy-benzoylamino)-phenyl]-4,6-Bis-((3R,5S)-3,5-diamino-piperidin-1-yl)-[1,3,5]triazine-2-amine]",< 16
5,"N[C@@H]1C[C@H](N)CN(c2nc(Nc3ccc(C(=O)CC(=O)Nc4ccccc4Cl)cc3)nc(N3C[C@@H](N)[C@@H](N)C3)n2)C1 [N-(2-Chloro-phenyl)-3-{4-[4-((3R,5S)-3,5-diamino-piperidin-1-yl)-6-((3R,4S)-3,4-diamino-pyrrolidin-1-yl)-[1,3,5]triazin-2-ylamino]-phenyl}-3-oxo-propionamide]",< 64
6,"N[C@@H]1C[C@H](N)CN(c2nc(Nc3ccc(NC(=O)c4c(O)ccc5ccccc45)c(O)c3)nc(N3C[C@H](N)C[C@H](N)C3)n2)C1 [N-{3-hydroxy-4-[(2-hydroxy-naphthalene-1-carbonyl)-amino]-phenyl}-4,6-Bis-((3R,5S)-3,5-diamino-piperidin-1-yl)-[1,3,5]triazine-2-amine]",< 16
7,"CCCCC(=O)Nc1ccc(S(=O)(=O)Nc2ccc(Nc3nc(N4C[C@H](N)C[C@H](N)C4)nc(N4C[C@H](N)C[C@H](N)C4)n3)cc2O)cc1 [N-[3-hydroxy-4-(4-pentanoylamino-benzenesulfonylamino)-phenyl]-4,6-Bis-((3R,5S)-3,5-diamino-piperidin-1-yl)-[1,3,5]triazine-2-amine]",< 64
8,"Cc1cccc(Nc2nc(N3C[C@H](N)C[C@H](N)C3)nc(N3C[C@H](N)C[C@H](N)C3)n2)n1 [N-(6-methyl-pyridin-2-yl)-4,6-Bis-((3R,5S)-3,5-diamino-piperidin-1-yl)-[1,3,5]triazine-2-amine]",> 64
9,"COc1cccc(C(=O)Nc2ccc(Nc3nc(N4C[C@H](N)C[C@H](N)C4)nc(N4C[C@H](N)C[C@H](N)C4)n3)cc2O)c1O [N-[3-hydroxy-4-(2-hydroxy-3-methoxy-benzoylamino)-phenyl]-4,6-Bis-((3R,5S)-3,5-diamino-piperidin-1-yl)-[1,3,5]triazine-2-amine]",< 16
10,"N[C@@H]1C[C@H](N)CN(c2nc(Nc3ccc(NC(=O)c4cc(Br)ccc4O)cc3)nc(N3C[C@H](N)C[C@H](N)C3)n2)C1 [N-[4-(5-bromo-2-hydroxy-benzoylamino)-phenyl]-4,6-Bis-((3R,5S)-3,5-diamino-piperidin-1-yl)-[1,3,5]triazine-2-amine]",< 16
11,"Cc1cc(C)cc(Nc2nc(N3C[C@H](N)C[C@H](N)C3)nc(N3C[C@H](N)C[C@H](N)C3)n2)c1 [N-(3,5-dimethyl-phenyl)-4,6-Bis-((3R,5S)-3,5-diamino-piperidin-1-yl)-[1,3,5]triazine-2-amine]",< 64
12,"CC(=O)c1ccc(Nc2nc(N3C[C@H](N)C[C@H](N)C3)nc(N3C[C@@H](N)C[C@H]3CN)n2)cc1 [1-{4-[4-((2S,4S)-4-Amino-2-aminomethyl-pyrrolidin-1-yl)-6-((3R,5S)-3,5-diamino-piperidin-1-yl)-[1,3,5]triazin-2-ylamino]-phenyl}-ethanone]",> 64
13,"N[C@@H]1C[C@H](N)CN(c2nc(Nc3ccc(NC(=O)c4ccc(F)c(F)c4O)c(O)c3)nc(N3C[C@H](N)C[C@H](N)C3)n2)C1 [N-[4-(3,4-difluoro-2-hydroxy-benzoylamino)-3-hydroxy-phenyl]-4,6-Bis-((3R,5S)-3,5-diamino-piperidin-1-yl)-[1,3,5]triazine-2-amine]",< 64
14,"Cc1cc(=O)oc2cc(Nc3nc(N4C[C@H](N)C[C@H](N)C4)nc(N4C[C@H](CN)C[C@H](CN)C4)n3)ccc12 [7-[4-((3S,5R)-3,5-Bis-(aminomethyl)-piperidin-1-yl)-6-((3R,5S)-3,5-diamino-piperidin-1-yl)-[1,3,5]triazin-2-ylamino]-4-methyl-chromen-2-one]",> 64
15,"N[C@@H]1C[C@H](N)CN(c2nc(Nc3ccc(NC(=O)c4ccc(Cl)cc4)c(O)c3)nc(N3C[C@@H](N)C[C@@H](O)C3)n2)C1 [N-{4-[4-((3S,5R)-3-Amino-5-hydroxy-piperidin-1-yl)-6-((3S,5R)-3,5-diamino-piperidin-1-yl)-[1,3,5]triazin-2-ylamino]-2-hydroxy-phenyl}-4-chloro-benzamide]",< 16
16,"N[C@@H]1C[C@H](N)CN(c2nc(NCc3ccc(Cl)cc3Cl)nc(N3C[C@H](N)C[C@H](N)C3)n2)C1 [N-(2,4-dichloro-benzyl)-4,6-Bis-((3R,5S)-3,5-diamino-piperidin-1-yl)-[1,3,5]triazin-2-amine]",> 64
17,"Cc1ccc(S(=O)(=O)N(Cc2ccccc2)c2ccc(Nc3nc(N4C[C@H](N)C[C@H](N)C4)nc(N4CC[C@H](O)[C@H](CN)C4)n3)c(O)c2)cc1 [N-{4-[4-((3R,4S)-3-Aminomethyl-4-hydroxy-piperidin-1-yl)-6-((3R,5S)-3,5-diamino-piperidin-1-yl)-[1,3,5]triazin-2-ylamino]-3-hydroxy-phenyl}-N-benzyl-4-methyl-benzenesulfonamide]",< 64
18,"COc1nc(Nc2ccc(NC(=O)c3ccc4ccccc4c3O)cc2)nc(N2C[C@H](N)C[C@H](N)C2)n1 [1-Hydroxy-naphthalene-2-carboxylic acid {4-[4-((3R,5S)-3,5-diamino-piperidin-1-yl)-6-methoxy-[1,3,5]triazin-2-ylamino]-phenyl}-amide]",< 16
19,"CCCCCCCCCC(=O)Nc1ccc(Nc2nc(N3C[C@H](N)C[C@H](N)C3)nc(N3C[C@H](N)C[C@H](N)C3)n2)cc1O [N-(4-decanoylamino-3-hydroxy-phenyl)-4,6-Bis-((3R,5S)-3,5-diamino-piperidin-1-yl)-[1,3,5]triazine-2-amine]",< 16

# Same assay, conditions: MIC in E. coli or S. aureus; two-fold serial dilutions 64 to 0.5 μg/ml in duplicate; 18 hours of incubation at 35° C.
row,Compound,Potency (MIC)
1,"NC[C@@H]1C[C@@H](O)CN1c1nc(Nc2ccc(S(=O)(=O)Nc3ccc4cn[nH]c4c3)cc2)nc(N2C[C@H](N)C[C@H](N)C2)n1 [4-[4-((2S,4R)-2-Aminomethyl-4-hydroxy-pyrrolidin-1-yl)-6-((3R,5S)-3,5-diamino-piperidin-1-yl)-[1,3,56]triazin-2-ylamino]-N-(1H-indazol-6-yl)-benzenesulfonamide]",− (− means MIC>64 μg/ml in E. coli or S. aureus)
